One data set is described as follows: in vitro. As to conditions: human, TOX HELA CC50 (μM).
The next data set relates to rgRSV224 virus. The data set is described as follows: Antiviral activity: rgRSV224 (GFP) replication in HeLa cells. As to conditions: human respiratory syncytial virus, HeLa, 72 h, read-out: RSV HELA EC50 (μM), rgRSV224 virus (MOI=1), HeLa cells, GFP expression three days post-virus exposure. The class given is cell-based, respiratory syncytial virus (RSV).

For nine compounds, CC50 and EC50 results are on record in patent publication US11339165B2, “Pyrazolopyrimidines having activity against the respiratory syncytial virus (RSV)” (priority 2017, dated 2022).

Some results are limits rather than exact numbers.

`C[C@@H]1c2ccccc2CCN1C(=O)c1cc(-c2ccncc2)n2nc(-c3ccc(N4CC[C@H](C(N)=O)C4)cc3F)cc2n1` [Compound 63, (3S)-1-(3-Fluoro-4-{5-[(1R)-1-methyl-1,2,3,4-tetrahydroisoquinoline-2-carbonyl]-7-(pyridin-4-yl)pyrazolo[1,5-a]pyrimidin-2-yl}phenyl)pyrrolidine-3-carboxamide] returned a half-maximal cytotoxic concentration (CC50) at 3 days in “in vitro” of 27.2 µM. The EC50 in the data set with rgRSV224 virus was found to be 0.011 µM.

Compound `C[C@@H]1c2ccccc2CCN1C(=O)c1cc(-c2cncnc2)n2nc(-c3ccc(N4CC[C@H](C(N)=O)C4)cc3F)cc2n1` [Compound 64, (3S)-1-(3-Fluoro-4-{5-[(1R)-1-methyl-1,2,3,4-tetrahydroisoquinoline-2-carbonyl]-7-(pyrimidin-5-yl)pyrazolo[1,5-a]pyrimidin-2-yl}phenyl)pyrrolidine-3-carboxamide] had a CC50 at 3 days in “in vitro” of 8.9 µM. The EC50 in the data set with rgRSV224 virus stood at 0.029 µM.

For the compound `C[C@@H]1c2ccccc2CCN1C(=O)c1cc(C2CC2)n2nc(-c3ccc(N4CCC(C(N)=O)CC4)cc3F)cc2n1` [Compound 68, 1-(4-{7-Cyclopropyl-5-[(1R)-1-methyl-1,2,3,4-tetrahydroisoquinoline-2-carbonyl]-pyrazolo[1,5-a]pyrimidin-2-yl}-3-fluorophenyl)piperidine-4-carboxamide], in the data set “in vitro”, the midpoint of cytotoxicity, the CC50 at 3 days, lay at 26.6 µM. Besides, the EC50 in the data set with rgRSV224 virus worked out at 0.058 µM.

In turn, `C[C@@H]1c2ccccc2CCN1C(=O)c1cc(C2CC2)n2nc(-c3ccc(N4CCCC(C(N)=O)C4)cc3F)cc2n1` (stereo partly drawn) [Compound 69, 1-(4-{7-Cyclopropyl-5-[(1R)-1-methyl-1,2,3,4-tetrahydroisoquinoline-2-carbonyl]-pyrazolo[1,5-a]pyrimidin-2-yl}-3-fluorophenyl)piperidine-3-carboxamide] came in with a CC50 at 3 days in “in vitro” of 33.2 µM. Also, the EC50 in the data set with rgRSV224 virus was determined as 0.059 µM.

Take `C[C@@H]1c2ccccc2CCN1C(=O)c1cc(C2CC2)n2nc(-c3ccc(N4CCC(CC(N)=O)CC4)cc3F)cc2n1` [Compound 70, 2-[1-(4-{7-Cyclopropyl-5-[(1R)-1-methyl-1,2,3,4-tetrahydroisoquinoline-2-carbonyl]-pyrazolo[1,5-a]pyrimidin-2-yl}-3-fluorophenyl)piperidin-4-yl] acetamide]: in the data set “in vitro”, the CC50 at 3 days came out at 28.2 µM. For the same compound, the EC50 in the data set on rgRSV224 virus is 0.104 µM.

The compound `C[C@@H]1c2ccccc2CCN1C(=O)c1cc(C2CC2)n2nc(-c3ccc(N4CCCC(CC(N)=O)C4)cc3F)cc2n1` (stereo partly drawn) [Compound 71, 2-[1-(4-{7-Cyclopropyl-5-[(1R)-1-methyl-1,2,3,4-tetrahydroisoquinoline-2-carbonyl]-pyrazolo[1,5-a]pyrimidin-2-yl}-3-fluorophenyl)piperidin-3-yl]acetamide] displayed a CC50 at 3 days in “in vitro” of 29.8 µM. Besides, the 50% effective concentration (EC50) with rgRSV224 virus came out at 0.105 µM.

As to `CNC(=O)C1CCCN(c2ccc(-c3cc4nc(C(=O)N5CCc6ccccc6[C@H]5C)cc(C5CC5)n4n3)c(F)c2)C1` (stereo partly drawn) [Compound 73, 1-(4-{7-Cyclopropyl-5-[(1R)-1-methyl-1,2,3,4-tetrahydroisoquinoline-2-carbonyl]-pyrazolo[1,5-a]pyrimidin-2-yl}-3-fluorophenyl)-N-methylpiperidine-3-carboxamide], the CC50 at 3 days in “in vitro” was more than 100 µM. In addition, the EC50 in the data set with rgRSV224 virus was 0.101 µM.

In the data set “in vitro”, `C[C@@H]1c2ccccc2CCN1C(=O)c1cc(C2CC2)n2nc(-c3ccc(N4CC[C@@H](OC(N)=O)C4)cc3F)cc2n1` [Compound 77, (3R)-1-(4-{7-Cyclopropyl-5-[(1R)-1-methyl-1,2,3,4-tetrahydroisoquinoline-2-carbonyl]pyrazolo[1,5-a]pyrimidin-2-yl}-3-fluorophenyl)pyrrolidin-3-yl carbamate] yielded a CC50 at 3 days of more than 100 µM. Besides, the EC50 in the data set with rgRSV224 virus turned out to be 0.082 µM.

In turn, `C[C@@H]1c2ccccc2CCN1C(=O)c1cc(C2CC2)n2nc(-c3ccc(N4CC[C@H](OC(N)=O)C4)cc3F)cc2n1` [Compound 78, (3S)-1-(4-{7-Cyclopropyl-5-[(1R)-1-methyl-1,2,3,4-tetrahydroisoquinoline-2-carbonyl]pyrazolo[1,5-a]pyrimidin-2-yl}-3-fluorophenyl)pyrrolidin-3-yl carbamate] registered a CC50 at 3 days in the data set “in vitro” of 47.3 µM. In the data set with rgRSV224 virus, the EC50 was 0.055 µM.
